Data on 22 compounds can be found in patent publication US20190381037A1, “Benzylaminopyridylcyclopropanecarboxylic acids, pharmaceutical compositions and uses thereof” (Boehringer Ingelheim International GmbH, priority 2017, published 2019).

human GPR40 receptor, sequence (O14842 whole entry): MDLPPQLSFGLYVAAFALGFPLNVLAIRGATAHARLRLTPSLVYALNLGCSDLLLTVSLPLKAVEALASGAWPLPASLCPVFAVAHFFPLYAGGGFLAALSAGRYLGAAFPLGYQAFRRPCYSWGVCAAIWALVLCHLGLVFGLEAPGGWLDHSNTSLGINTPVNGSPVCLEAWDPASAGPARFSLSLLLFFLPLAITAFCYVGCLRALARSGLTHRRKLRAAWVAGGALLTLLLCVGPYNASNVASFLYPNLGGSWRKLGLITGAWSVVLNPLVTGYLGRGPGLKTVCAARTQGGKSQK

The target of this experiment is human GPR40 receptor (Homo sapiens, UniProt O14842). As to the kind of experiment: IP1 accumulation measurements using the IPOne assay system. Format: cell-based. The note with it: 1321N1 cells stably expressing human GPR40 receptor; stimulated 1 h at 37° C. As for the experimental part:
IP1 accumulation measurements using the IPOne assay system—1321N1 cells stably expressing human GPR40 receptor (Euroscreen, Belgium) are seeded 24 h before the assay in white 384-well plates in culture medium containing 10% FCS, 1% Na-Pyruvate and 400 μg/mL G418. IP1 is assayed according to the manufacturer's description (Cisbio Bioassays, France). In brief, the assay is started by substitution of the culture medium by stimulation buffer (Hepes 10 mM, CaCl2) 1 mM, MgCl2 0.5 mM, KCl 4.2 mM, NaCl 146 mM, glucose 5.5 mM and LiCl 50 mM, pH 7.4). Cells are stimulated for 1 h at 37° C., 5% CO2 by addition of the compounds that are diluted in stimulation buffer containing LiCl. Assays are stopped by adding HTRF-conjugates (IP1-d2 and Anti-IP1 cryptate Tb) and lysis buffer, provided by the manufacturer. After an incubation time of 1 h at room temperature plates are measured using an EnVision™, Perkin Elmer. The obtained fluorescence ratios at 665/615 […] are then used to calculate the pEC50 values using Assay Explorer 3.3 Software (Accelrys, Inc.) by interpolation using an IP1 reference curve and subsequent sigmoidal curve fitting allowing for a variable hill slope.
Usually EC50 stands for the concentration at which the effect is half-maximal. Low readings indicate higher potency in that assay, high ones lower potency in that assay. In turn, `Cc1cc(-c2nnn(C)n2)cc(C)c1-c1cccc(COc2cnc([C@H]3C[C@@H]3C(=O)O)cn2)c1` [Example 2, (1 S,2S)-2-{5-[2′,6′-Dimethyl-4′-(2-methyl-2H-tetrazol-5-yl)-biphenyl-3-ylmethoxy]-pyrazin-2-yl}-cyclopropanecarboxylic acid] displayed an EC50 of 3 nM. As for `CC(C)(O)CCOc1ccc(-c2cc(COc3cnc([C@H]4C[C@@H]4C(=O)O)cn3)ccc2C(F)(F)F)cc1` [Example 21, (1 S,2S)-2-{5-[4′-(3-Hydroxy-3-methyl-butoxy)-6-trifluoromethyl-biphenyl-3-ylmethoxy]-pyrazin-2-yl}-cyclopropanecarboxylic acid], the response was half-maximal at 3 nM (EC50). `Cc1cc(OCCC(C)(C)O)cc(C)c1-c1cc(COc2cnc([C@H]3C[C@@H]3C(=O)O)cn2)c(F)cc1F` [Example 1, (1 S,2S)-2-{5-[4,6-Difluoro-4′-(3-hydroxy-3-methyl-butoxy)-2′,6′-dimethyl-biphenyl-3-ylmethoxy]-pyrazin-2-yl}-cyclopropanecarboxylic acid] came in with an EC50 of 6 nM. In turn, `Cc1cc(O[C@H]2CCOC2)cc(C)c1-c1cccc(COc2cnc([C@H]3C[C@@H]3C(=O)O)cn2)c1` [Example 6, (1 S,2S)-2-(5-{2′,6′-Dimethyl-4′-[(S)-(tetrahydro-furan-3-yl)oxy]-biphenyl-3-ylmethoxy}-pyrazin-2-yl)-cyclopropanecarboxylic acid] gave an EC50 of 10 nM. Compound `O=C(O)[C@H]1C[C@@H]1c1cnc(OCc2cccc(-c3ccccc3C(F)(F)F)c2)cn1` [Example 3, (1 S,2S)-2-[5-(2′-Trifluoromethyl-biphenyl-3-ylmethoxy)-pyrazin-2-yl]-cyclopropanecarboxylic acid] had an EC50 of 24 nM. For `Cc1cc(-c2ccc(=O)n(C)c2)cc(C)c1-c1cccc(COc2cnc([C@H]3C[C@@H]3C(=O)O)cn2)c1` [Example 9, (1 S,2S)-2-{5-[2′,6′-Dimethyl-4′-(1-methyl-6-oxo-1,6-dihydro-pyridin-3-yl)-biphenyl-3-ylmethoxy]-pyrazin-2-yl}-cyclopropanecarboxylic acid], the EC50 is 9 nM. As to `COc1cc(-c2cc(C)c(-c3ccc(F)c(COc4cnc([C@H]5C[C@@H]5C(=O)O)cn4)c3)c(C)c2)ccn1` [Example 17, (1 S,2S)-2-{5-[4-Fluoro-4′-(2-methoxy-pyridin-4-yl)-2′,6′-dimethyl-biphenyl-3-ylmethoxy]-pyrazin-2-yl}-cyclopropanecarboxylic acid], the response was half-maximal at 7 nM (EC50).

For the compound `CC(C)c1ccccc1-c1ccc(F)c(COc2cnc([C@H]3C[C@@H]3C(=O)O)cn2)c1` [Example 20, (1 S,2S)-2-[5-(4-Fluoro-2′-isopropyl-biphenyl-3-ylmethoxy)-pyrazin-2-yl]-cyclopropanecarboxylic acid], the EC50 was 35 nM.

In turn, `Cc1cc(OCCCS(C)(=O)=O)cc(C)c1-c1ccc(F)c(COc2cnc([C@H]3C[C@@H]3C(=O)O)cn2)c1` [Example 18, (1 S,2S)-2-{5-[4-Fluoro-4′-(3-methanesulfonyl-propoxy)-2′,6′-dimethyl-biphenyl-3-ylmethoxy]-pyrazin-2-yl}-cyclopropanecarboxylic acid] registered an EC50 of 7 nM. In turn, `Cc1cc(-c2nnn(CC(C)(C)O)n2)cc(C)c1-c1cccc(COc2cnc([C@H]3C[C@@H]3C(=O)O)cn2)c1` [Example 12, (1 S,2S)-2-(5-{4′-[2-(2-Hydroxy-2-methyl-propyl)-2H-tetrazol-5-yl]-2′,6′-dimethyl-biphenyl-3-ylmethoxy}-pyrazin-2-yl)-cyclopropanecarboxylic acid] registered an EC50 of 8 nM. On to `Cc1cc(OCC2CCOCC2)cc(C)c1-c1ccc(F)c(COc2cnc([C@H]3C[C@@H]3C(=O)O)cn2)c1` [Example 19, (1 S,2S)-2-{5-[4-Fluoro-2′,6′-dimethyl-4′-(tetrahydro-pyran-4-ylmethoxy)-biphenyl-3-ylmethoxy]-pyrazin-2-yl}-cyclopropanecarboxylic acid], for which the EC50 worked out at 6 nM. With `Cc1cc(OCCC(C)(C)O)cc(C)c1-c1cccc(COc2cnc([C@H]3C[C@@H]3C(=O)O)cn2)c1` [Example 8, (1 S,2S)-2-{5-[4′-(3-Hydroxy-3-methyl-butoxy)-2′,6′-dimethyl-biphenyl-3-ylmethoxy]-pyrazin-2-yl}-cyclopropanecarboxylic acid] the figure was 7 nM.

`Cc1cc(-c2ccnn2C)cc(C)c1-c1cccc(COc2cnc([C@H]3C[C@@H]3C(=O)O)cn2)c1` [Example 11, (1 S,2S)-2-{5-[2′,6′-Dimethyl-4′-(2-methyl-2H-pyrazol-3-yl)-biphenyl-3-ylmethoxy]-pyrazin-2-yl}-cyclopropanecarboxylic acid] displayed a concentration giving a half-maximal response (EC50) of 6 nM. `O=C(O)[C@H]1C[C@@H]1c1cnc(OCc2cc(-c3c(Cl)cccc3Cl)ccc2F)cn1` [Example 15, (1 S,2S)-2-[5-(2′,6′-Dichloro-4-fluoro-biphenyl-3-ylmethoxy)-pyrazin-2-yl]-cyclopropanecarboxylic acid] gave an EC50 of 8 nM.

For the compound `O=C(O)[C@H]1C[C@@H]1c1cnc(OCc2cccc(-c3ccc(-c4cnco4)cc3)c2)cn1` [Example 5, (1 S,2S)-2-[5-(4′-Oxazol-5-yl-biphenyl-3-ylmethoxy)-pyrazin-2-yl]-cyclopropane-carboxylic acid], the EC50 worked out at 67 nM. As for `COc1cc(C)c(-c2cccc(COc3cnc([C@H]4C[C@@H]4C(=O)O)cn3)c2)c(C)c1` [Example 4, (1 S,2S)-2-[5-(4′-Methoxy-2′,6′-dimethyl-biphenyl-3-ylmethoxy)-pyrazin-2-yl]-cyclopropanecarboxylic acid], the EC50 turned out to be 12 nM. `Cc1cnc(-c2cc(C)c(-c3ccc(F)c(COc4cnc([C@H]5C[C@@H]5C(=O)O)cn4)c3)c(C)c2)nc1` [Example 16, (1 S,2S)-2-{5-[4-Fluoro-2′,6′-dimethyl-4′-(5-methyl-pyrimidin-2-yl)-biphenyl-3-ylmethoxy]-pyrazin-2-yl}-cyclopropanecarboxylic acid]: the EC50 was found to be 3 nM. `Cc1cc(-c2cnccn2)cc(C)c1-c1cccc(COc2cnc([C@H]3C[C@@H]3C(=O)O)cn2)c1` [Example 10, (1 S,2S)-2-[5-(2′,6′-Dimethyl-4′-pyrazin-2-yl-biphenyl-3-ylmethoxy)-pyrazin-2-yl]-cyclopropanecarboxylic acid] returned an EC50 of 13 nM. Turning to `Cc1cc(OCC2CCCO2)cc(C)c1-c1ccc(F)c(COc2cnc([C@H]3C[C@@H]3C(=O)O)cn2)c1` (stereo partly drawn) [Example 14, (1 S,2S)-2-{5-[4-Fluoro-2′,6′-dimethyl-4′-(tetrahydro-furan-2-ylmethoxy)-biphenyl-3-ylmethoxy]-pyrazin-2-yl}-cyclopropanecarboxylic acid], the EC50 was determined as 6 nM. For `Cc1nnc(-c2ccc(-c3cc(COc4cnc([C@H]5C[C@@H]5C(=O)O)cn4)ccc3C(F)(F)F)cc2)o1` [Example 22, (1 S,2S)-2-{5-[4′-(5-Methyl-[1,3,4]oxadiazol-2-yl)-6-trifluoromethyl-biphenyl-3-ylmethoxy]-pyrazin-2-yl}-cyclopropanecarboxylic acid], the response was half-maximal at 4 nM (EC50). `CCc1cccc(CC)c1-c1cccc(COc2cnc([C@H]3C[C@@H]3C(=O)O)cn2)c1` [Example 13, (1 S,2S)-2-[5-(2′,6′-Diethyl-biphenyl-3-ylmethoxy)-pyrazin-2-yl]-cyclopropane-carboxylic acid] displayed an EC50 of 20 nM. Compared with the last compound, the EC50 is about 5-fold higher.

Regarding `Cc1cc(OC2CCOCC2)cc(C)c1-c1cccc(COc2cnc([C@H]3C[C@@H]3C(=O)O)cn2)c1` [Example 7, (1 S,2S)-2-{5-[2′,6′-Dimethyl-4′-(tetrahydro-pyran-4-yloxy)-biphenyl-3-ylmethoxy]-pyrazin-2-yl}-cyclopropanecarboxylic acid], the EC50 was found to be 8 nM.
